From patent US8058243B2, “Method for treating a brain cancer with ifenprodil” (HSC Research and Development Limited Partnership, priority 2006, dated 2011)
Structures can show the parent of a compound that is named as a salt. Where two headings read alike, the source gives them in different places.

System: murine neural precursor cells (neurosphere cultures)
Experiment: HTS of LOPAC library against secondary neurosphere cultures, MTT proliferation assay at 3 μM, day 7 (z score, P value)
Assay type: cell-based, mouse
[1] = LOPAC screen, neurosphere MTT proliferation, 3 μM, day 7
[2] = yes/no: significantly inhibited neurosphere proliferation (P<0.01) in primary screen
[3] = LOPAC primary screen, neurosphere MTT proliferation, 3 μM, day 7
[4] = yes = significantly inhibited neurosphere proliferation (P<0.01) in the primary screen
[5] = LOPAC library screen, 3 μM, MTT, secondary neurosphere cultures, day 7
[6] = yes/no: significantly inhibited neurosphere proliferation (P<0.01) in the primary screen
[7] = LOPAC library screen, 3 μM, MTT, neurosphere cultures
[8] = yes/no: significantly inhibited neurosphere proliferation in primary screen
[9] = primary LOPAC screen, 3 μM, MTT, neurosphere proliferation
[10] = yes/no: significantly inhibited neurosphere proliferation in the primary screen
[11] = LOPAC library screen at 3 μM, secondary neurosphere cultures, MTT

With `Nc1ncnc2c1c(-c1ccc(Oc3ccccc3)cc1)cn2C1CCCC1` the “Z Score” value was −1.412, the Z score [1] was −1.412 and the Activity [2] was “no”.

For R(−)-Me5, the “Z Score” value was −1.414, the Z score [3] was −1.414 and the Activity [4] was “no”.

For `CN(C)CCCN1c2ccccc2Sc2ccc(C(F)(F)F)cc21` [Triflupromazine hydrochloride], the “Z Score” value [5] was −1.82, the Z score [3] was −1.820 and the Activity [6] was “no”.

For `NC(=O)NO` [Hydroxyurea], the “Z Score” value [7] was 1.131, the Z score [3] was 1.131 and the Activity [2] was “no”.

`O=c1n(CCCN2CCN(c3cccc(Cl)c3)CC2)nc2ccccn12` [Trazodone hydrochloride] was tested, and the “Z Score” value (168 h, 3 µM) was −2.644, the Z score (168 h, 3 µM) was −2.644 and the Activity [6] was “yes”.

For (±)-Pindobind, the Z score [3] was 0.257 and the Activity [8] was “no”.

`S=C=Nc1ccc2oc(C3=NCCN3)cc2c1` [BU99006] was tested, and the “Z Score” value was 1.182, the Z score [3] was 1.182 and the Activity [2] was “no”.

For `Oc1c2ccccc2c2c3c(cccc13)N=N2` [SP600125], the “Z Score” value [5] was −1.986 and the Z score [1] was −1.986.

In the case of `COc1ccc2[nH]c(I)c(CCNC(C)=O)c2c1` [2-Iodomelatonin], the “Z Score” value was −0.1348, the Z score [3] was −0.135 and the Activity [2] was “no”.

For `Cl.NCC#Cc1ccccc1` [3-Phenylpropargylamine hydrochloride], the “Z Score” value was −2.043, the Z score [3] was −2.043 and the Activity [8] was “no”.

For `NC(=O)c1cc[n+](CC2=C(C(=O)O)N3C(=O)[C@@H](NC(=O)[C@@H](c4ccccc4)S(=O)(=O)[O-])[C@H]3SC2)cc1` [Cefsulodin sodium salt hydrate], the “Z Score” value [5] was −2.277, the Z score [3] was −2.277 and the Activity [6] was “no”.

In the case of `C[N+](C)(C)CC#CCOC(=O)Nc1cccc(Cl)c1.[Cl-]` [McN-A-343], the “Z Score” value was −0.08897, the Z score [1] was −0.089 and the Activity [2] was “no”.

With `Oc1ccc2c3c1O[C@H]1c4[nH]c5c(c4C[C@@]4(O)[C@@H](C2)N(CC2CC2)CC[C@]314)C[C@@]1(O)[C@H]2Cc3ccc(O)c4c3[C@@]1(CCN2CC1CC1)[C@H]5O4` [nor-Binaltorphimine dihydrochloride] the “Z Score” value was 0.3881, the Z score [3] was 0.388 and the Activity [4] was “no”.

For `CCCN(CCC)CCc1cccc2c1CC(=O)N2` [Ropinirole hydrochloride], the Activity was “no”, the “Z Score” value (168 h, 3 µM) was −0.2552 and the Z score (168 h, 3 µM) was −0.255.

For `Br.C=CCN1CCc2c(cc(O)c(O)c2Br)[C@@H](c2ccccc2)C1` [R(+)-6-Bromo-APB hydrobromide], the “Z Score” value was 1.532, the Z score [1] was 1.532 and the Activity [2] was “no”.

For `N[C@@H](C(=O)N[C@@H]1C(=O)N2C(C(=O)O)=C(Cl)CS[C@H]12)c1ccccc1` [Cefaclor], the “Z Score” value [5] was −3.009, the Z score [3] was −3.009 and the Activity [6] was “yes”.

For (−)-MK-801 hydrogen maleate, the “Z Score” value was 1.133, the Z score [3] was 1.133 and the Activity [4] was “no”.

For `CC1=C(CC(=O)O)c2cc(F)ccc2/C1=C\c1ccc(S(C)(=O)=O)cc1` [Sulindac sulfone], the “Z Score” value was 0.5924, the Z score [3] was 0.592 and the Activity [8] was “no”.

With `CN[C@@H]1C[C@@H](c2ccc(Cl)c(Cl)c2)c2ccccc21` [Indatraline hydrochloride] the “Z Score” value was −0.7236, the Z score [3] was −0.724 and the Activity [2] was “no”.

In the case of `CN1CCN2c3ccccc3Cc3ccccc3C2C1` (stereo not drawn) [Mianserin hydrochloride], the Activity was “no”, the “Z Score” value [7] was 0.9746 and the Z score [3] was 0.975.

With `O=C1c2c(O)ccc(O)c2C(=O)c2c(NCCNCCO)ccc(NCCNCCO)c21` [Mitoxantrone] the “Z Score” value [5] was −10.21, the Z score [3] was −10.205 and the Activity [4] was “yes”.

For R-(−)-Desmethyldeprenyl hydrochloride, the “Z Score” value was −0.5056, the Z score [1] was −0.506 and the Activity [2] was “no”.

In the case of `O=C(N[C@@H](Cc1ccccc1)C(=O)CCl)OCc1ccccc1` [Z-L-Phe chloromethyl ketone], the “Z Score” value was −2.901, the Z score [3] was −2.901 and the Activity [6] was “yes”.

`N=C(N)NN` [Aminoguanidine hydrochloride] was tested, and the “Z Score” value [7] was −0.000731, the Z score [9] was −0.001 and the Activity [10] was “no”.

For `Cc1ccc(O)c(N=Nc2ccccc2)n1` [SIB 1757], the “Z Score” value was −1.752, the Z score [3] was −1.752 and the Activity [8] was “no”.

For `N=C(NCCC[C@H](N)C(=O)O)N[N+](=O)[O-]` [NG-Nitro-L-arginine], the “Z Score” value [7] was 0.1385, the Z score [3] was 0.139 and the Activity [4] was “no”.

`CN/C(=N\c1ccc(C2=NNC(=O)CC2C)cc1)NC#N` (stereo not drawn) [SKF 94836] was tested, and the “Z Score” value was 0.2458, the Z score [3] was 0.246 and the Activity [8] was “no”.

With `NC(CCP(=O)(O)O)C(=O)O` (stereo not drawn) [(B1)-2-Amino-4-phosphonobutyric acid] the “Z Score” value was 1.893.

In the case of `CCOC(=O)N1CCC(=C2c3ccc(Cl)cc3CCc3cccnc32)CC1` [Loratadine], the “Z Score” value [5] was −1.823, the Z score [3] was −1.823 and the Activity [2] was “no”.

In the case of `Nn1nnc2ccccc21` [1-Aminobenzotriazole], the “Z Score” value (168 h, 3 µM) was 0.5236, the Z score (168 h, 3 µM) was 0.524 and the Activity [10] was “no”.

In the case of `COc1cccc(OC)c1OCCNCC1COc2ccccc2O1.Cl` (stereo not drawn) [WB-4101 hydrochloride], the “Z Score” value was −2.247, the Z score [1] was −2.247 and the Activity [2] was “no”.

For `CCCN(CCC)[C@H]1CCc2c(F)ccc(O)c2C1.Cl` [S(−)-UH-301 hydrochloride], the “Z Score” value was −2.706, the Z score [3] was −2.706 and the Activity [6] was “yes”.

`C=CCN1CC[C@]23CCCC[C@H]2[C@H]1Cc1ccc(O)cc13` [Levallorphan tartrate] was tested, and the “Z Score” value [11] was −0.3465, the Z score [3] was −0.346 and the Activity [4] was “no”.

With LY-310,762 hydrochloride the “Z Score” value was 0.05111, the Z score [3] was 0.051 and the Activity [6] was “no”.

For `CN1C[C@H](CNC(=O)OCc2ccccc2)C[C@@H]2c3cccc4c3c(cn4C)C[C@H]21` [Metergoline (39), Metergoline, reference compound], the “Z Score” value [5] was −4.342, the Z score [3] was −4.342 and the Activity [6] was “yes”.

In the case of `O=C(O)c1cc(=O)c2ccccc2[nH]1` [Kynurenic acid], the “Z Score” value [7] was 0.7018, the Z score [3] was 0.702 and the Activity [2] was “no”.

With `Cl.Nc1cc(Cl)c(N=C2NCCN2)c(Cl)c1` [p-Aminoclonidine hydrochloride] the “Z Score” value was −0.04776, the Z score [3] was −0.048 and the Activity [8] was “no”.

`Cl.Cl.Cn1cnc(CCN)c1` [1-Methylhistamine dihydrochloride] was tested, and the Z score [3] was 0.307 and the Activity [4] was “no”.

With `NCCCCCCCCCCN` [1,10-Diaminodecane] the “Z Score” value (168 h, 3 µM) was 0.1393, the Z score (168 h, 3 µM) was 0.139 and the Activity [2] was “no”.

`O=C1NC(=O)C(c2ccccc2)(c2ccccc2)N1` [Phenytoin sodium] was tested, and the “Z Score” value [11] was −0.2166, the Z score [1] was −0.217 and the Activity [2] was “no”.

`C/C=C1\C(=O)C[C@H]2[C@@H]3CCC4=CC(=O)CC[C@]4(C)[C@H]3CC[C@]12C` [(Z)-Gugglesterone] was tested, and the “Z Score” value was 3.205, the Z score [1] was 3.205 and the Activity [2] was “no”.

For `C/C=C(/C)C(=O)O[C@H]1C(C)=C2[C@H]([C@@H]1OC(=O)CCCCCCC)[C@@](C)(OC(C)=O)C[C@H](OC(=O)CCC)[C@@]1(O)[C@H]2OC(=O)[C@@]1(C)O` [Thapsigargin], the “Z Score” value [5] was −9.559, the Z score [3] was −9.559 and the Activity [4] was “yes”.

With `CCCn1c(=O)c2[nH]c(C3CCCC3)nc2n(CCC)c1=O` [8-Cyclopentyl-1,3-dipropylxanthine] the “Z Score” value (168 h, 3 µM) was −0.07021, the Z score (168 h, 3 µM) was −0.070 and the Activity [2] was “no”.

With `NNc1nncc2ccccc12` [Hydralazine hydrochloride] the “Z Score” value [7] was 0.2592, the Z score [3] was 0.259 and the Activity [2] was “no”.

For `O=C(O)c1cc([N+](=O)[O-])ccc1NCCCc1ccccc1` [5-Nitro-2-(3-phenylpropylamino)benzoic acid], the “Z Score” value (168 h, 3 µM) was −0.7343, the Z score (168 h, 3 µM) was −0.734 and the Activity [4] was “no”.

With `CC1(C)NC(=O)N(c2ccc([N+](=O)[O-])c(C(F)(F)F)c2)C1=O` [Nilutamide] the “Z Score” value [7] was 0.1188, the Z score [3] was 0.119 and the Activity [4] was “no”.

With `CC1COc2c(N3CCN(C)CC3)c(F)cc3c(=O)c(C(=O)O)cn1c23` (stereo not drawn) [Ofloxacin] the “Z Score” value [11] was −0.4889 and the Z score [3] was −0.489.

In the case of `NC(N)=Nc1nc(CSCCC(N)=NS(N)(=O)=O)cs1` [Famotidine], the Activity was “no”, the “Z Score” value [7] was 0.05489 and the Z score [3] was 0.055.

`CC(NCCc1ccc(O)cc1)C(O)c1ccc(O)cc1` (stereo not drawn) [Ritodrine hydrochloride] was tested, and the “Z Score” value [5] was −2.332, the Z score [3] was −2.332 and the Activity [6] was “yes”.

In the case of `OC(CCN1CCCCC1)(c1ccccc1)C1CCCCC1` (stereo not drawn) [Trihexyphenidyl hydrochloride], the “Z Score” value [7] was 1.215.

`Cc1nc2c([nH]1)c(=O)n(C)c(=O)n2Cc1ccco1` [Furafylline] was tested, and the “Z Score” value [7] was 1.025, the Z score [3] was 1.025 and the Activity [2] was “no”.

For `CC(N)(Cc1ccc(O)c(O)c1)C(=O)O` (racemic) [(±)-3-(3,4-dihydroxyphenyl)-2-methyl-DL-alanine], the Z score (168 h, 3 µM) was −1.894 and the Activity [4] was “no”.

`O=C(/C=C/c1ccc(O)c(O)c1)OCCc1ccccc1` [Caffeic acid phenethyl ester] was tested, and the “Z Score” value (168 h, 3 µM) was 1.306, the Z score (168 h, 3 µM) was 1.306 and the Activity [2] was “no”.

With Terbutaline hemisulfate the “Z Score” value [7] was 0.6409, the Z score [9] was 0.641 and the Activity [10] was “no”.

For `CC[C@H]1CN2CCc3cc(OC)c(OC)cc3[C@@H]2C[C@@H]1C[C@H]1NCCc2cc(OC)c(OC)cc21` [Emetine dihydrochloride hydrate], the Activity was “yes”, the “Z Score” value [5] was −10.63 and the Z score [3] was −10.633.
